Measurements from paper PMC12647017, “Discovery and optimization of a synthetic small protein domain targeting antibodies” (Frontiers in Bioengineering and Biotechnology, 2025).
One block for each molecule: values may come before it.

Key:
[1] = test system: human polyclonal IgG; experiment: Screening ELISA of phage display clones (crude extracts) against human polyclonal IgG; format: binding; parameters: key: High: high binders (Abs>0.4); Moderate: moderate signal; details: crude extract of clones from 6th panning round, 1 µg/well human polyclonal IgG, blocked 3% (w/v) BSA in TBS, 50 µL extract 1 h at 37 °C, Anti-HA tag-HRP, ABTS, Abs405nm
Description: The biopanning of the previously developed WWp5_4 library ([Dias et al., 2025]) (Figures 1A,B) against human polyclonal IgG was performed for six rounds, after which an enrichment of ligands was observed (Supplementary Table S3). To assess the binding of each clone to the target, 192 clones were selected and expressed at small scale in 96-deep well blocks, following conditions previously optimised. After cell lysis, the supernatant containing the soluble fraction was used for ELISA assays. The results in Figure 1C illustrate the difference in the absorbance profile of the screened ligands. […] From these 26, only 21 presented high quality for reliable sequencing results. The sequence alignment and diversity of the different binders is represented in Table 1 and Figure 2A.
Small Scale Protein Expression and screening ELISA: From the output of the 6th round of panning, 94 isolated colonies were peaked into two sterile 96-well deep well 2mL round-bottom plates and grown with 200 µL of LB with ampicillin, 125 rpm, 37 °C, overnight (master plates). The following day, to one of the master plates was added glycerol to achieve a final concentration of 15% and was stored at -80 °C. Regarding the other master plate, 12 µL of this culture was added to another sterile 96-well deep well 2 mL round-bottom plate with 1.2 mL of LB with ampicillin and was grown at 37 °C, 125 rpm until OD600nm achieved 0.5-0.6. After this, protein expression was induced with 1 mM IPTG and continued incubation with the previous conditions. The following day, the cultures were sonicated for 30 minutes in ice-water bath and centrifuged for 10 minutes at 2500 x g. The supernatant was collected and transferred to a new microplate to be used in the screening for the ELISA (crude extract). For the ELISA, three microplates were tested: A) Sample binding plate; B) Negative control plate; C) Expression plate. On the sample binding plate, 1 µg/well of human polyclonal IgG was immobilized on the plate at 4 °C, overnight. On the following day, the target was removed, and the wells were washed once with TBS, then the plate was blocked with 300 µL 3% (w/v) BSA in TBS for 1 hour at 37 °C. After this, the wells were washed once with TBS, and were then incubated with 50 µL of crude extract (containing WW domain) for 1 hour at 37 °C. The plate was then washed 5 times with TBS-T, and then incubated with 100 µL of the Anti-HA tag-HRP conjugated antibody (diluted 1:1000) for 1 hour at 37 °C. The plate was then washed once with TBS-T and 4 times with TBS, and then incubated with the substrate ABTS for 1 hour at the dark at 37 °C. The results were then analysed in a microplate reader (TECAN) and the Abs405nm was then measured.
For the Negative control plate the protocol was the same as for the Binding microplate, except for the target immobilization. Instead of having IgG, only coating buffer was added. This plate allows to detect clones that unspecific bind to BSA present in the Blocking Buffer. For the Expression plate the protocol started at the step of incubation with the crude extract, and from there the steps were the same as the Binding microplate. This plate allows to detect clone’s basal expression level.

[2] = test system: human IgG; experiment: Microscale Thermophoresis (MST) with IgG-FITC; format: binding
Description: For MST assays of E6, IgG was conjugated with fluoresceine isothiocyanate (FITC) using standard protocols. The conjugated IgG-FITC was used at a fixed concentration of 50nM and 16 serial dilutions of E6 protein (from 23.5 µM to 0.7 nM) were made in 50 mM MOPS 0.05% (v/v) Tween-20 pH 7.
For MST assays of E6_M2_T2, the target was hIgG-FITC (F9636, Sigma) at a constant concentration of 25 nM. For the E6_M2_T2 ligand, 16 samples were prepared in variable concentrations starting from 695 nM and using a serial dilution of 1:2 up to a minimum concentration of […] using PBS1x-0.05% (v/v) Tween-20 pH7.4.
Samples were transferred to a standard capillary (Monolith NT.115 Capillary, Nanotemper) with the following settings: medium MST-power, excitation power at 20%, with excitation in Nano-Blue, with thermostat at 25 °C. The signal of the samples was read in triplicates using a Monolith NT.115 (Nanotemper) and the signal was processed in the manufacturer software with FitModel: Kd and Hill. The binding parameters (KD and EC50) and were estimated automatically in the MST software.

[3] = Solubility / precipitation observed during production, dialysis and purification; format: physicochemical
Description: Therefore, after expression the soluble fractions were further centrifuged at 42,000 g for 20 min at 4 °C. As the samples were diluted (∼5 mg/mL in 25 mL lysis buffer), the soluble fractions were lyophilized and resuspended in 4 mL of water. The samples were dialyzed (Membranes Spectra Pre-Treated 1 kDa, Carl Roth) to Binding buffer without imidazole (20 mM Sodium Phosphate, 500 mM Sodium Chloride pH 7.4) for 24 h at 16 °C. The samples were quantified by […] (typically ∼6 mg/mL), this solution was diluted 1:2 in Binding buffer (20 mM Sodium Phosphate, 500 mM Sodium Chloride, 20 mM imidazole pH 7.4) and purified in a gravitational flow with 6 mL of resin (IMAC Sepharose 6 Fast Flow (Ni^2+), Cytiva) packed in a PD-10 column. The column was prepared using the indications of the manufacturer. The binding of the protein to the column was maximized by an incubation for 1 h at room temperature in agitation at 40rpm. The resin was washed 4 x column volumes (CV) with binding buffer. The elution as achieved by incubation for 15min with elution buffers. We used a gradient with 3 x CV elution buffer 1 (binding buffer with 100 mM imidazole) and 3 x CV elution buffer 2 (binding buffer with 200 mM imidazole).
The most enriched elutions in WW domains (60%–70% purity) were combined and dialysed against PBS1x (10 mM Na2HPO4, 1.8 mM KH2PO4, 2.7 mM KCl, 137 mM NaCl pH 7.4) with routine changes of buffer up to 48 h at 16 °C. Following the samples were concentrated with a Amicon-Ultra15 3 kDa MWCO (Millipore) with centrifugation conditions 4,900 g, 30 min, 4 °C. The final samples were quantified by BCA assay.
Size Exclusion Chromatography (SEC). The samples were further purified by SEC to achieve 90% purity in a AKTA system (Cytiva). The column Superdex 75 Increase 10/300 GL (29148721, Cytiva) was washed with water and equilibrated 2CV in PBS1x, as described by the manufacturer. As calibrants we prepare a mixture: 2 mg/mL of Bovine Serum Albumin (66 kDa, BP9702-100, FisherScientific), Ovalbumin (42 kDa, A5503-1G, Sigma), Chicken Lysozyme ([…], 62,971–10G-F, Fluka) and hPin1_WW chemically synthesized (5 kDa, produced in ([Dias et al., 2015])) in PBS 1x, this sample was filtered with 0.2 µm PES (514–0073, VWR) and analysed. The operation conditions: flow 0.5 mL/min, 0.05 CV in PBS1x and injection of 250 µL and run for 2 CV with PBS 1x at 16 °C. The same method was used for the WW domain samples. After purifications samples were quantified for total protein by BCA assay, as described previously and used for characterization.

[4] = target: human polyclonal IgG (human); experiment: ELISA; hIgG immobilised (1 ug/well) in 0.1 M sodium bicarbonate pH 8.6 on Maxisorp plates; blocked with 5% soya milk in PBS; 100 uL soluble fraction (~0.065 mg/mL total protein), 2 h at room temperature; detection with anti-His-HRP and ABTS, Abs 405 nm

Molecule: SMGLPPGWDEYKT ALSRW GKTYYYNH DWNP KTSTWTDPRMSS [Clone H7, WW domain clone against human IgG, loops ALSRW / DWNP]
ELISA signal [1]: Moderate

Molecule: SMGLPPGWDEYKT TMAWL GKTYYYNH YTPG KTSTWTDPRMSS [Clone A5, WW domain clone against human IgG, loops TMAWL / YTPG]
ELISA signal [1]: High (high binders (Abs>0.4))

Molecule: SMGLPPGWDEYKT SMALL GKTYYYNH YTPG KTSTWTDPRMSS [Clone C8, WW domain clone against human IgG, loops SMALL / YTPG]
ELISA signal [1]: Moderate

EC50 ([2]; E6_M2_T2, hIgG-FITC 25 nM, ligand from 695 nM 1:2 dilutions, PBS1x-0.05% (v/v) Tween-20 pH 7.4, 25 °C, n = 3): 157 nM
Kd ([2]; E6_M2_T2, hIgG-FITC 25 nM, ligand from 695 nM 1:2 dilutions, PBS1x-0.05% (v/v) Tween-20 pH 7.4, 25 °C, n = 3, read-out: dissociation constant, KD): 62 ± 14 nM
Molecule: C S GK LPPGW E E R KTRRFKLG R TYYYNHHILSKTS Q W EH PR G SSS GK LPPGW E E R KTRRFKLG R TYYYNHHILSKTS Q W EH PR G SS [Clone E6_M2_T2]
KD relative to KD of E6 native sequence ([2]; human IgG): half of the dissociation constant estimated for the E6 native sequence
aggregation compared with the monomeric version [3]: aggregates less than the monomeric version
solubility compared with native counterpart E6 ([3]; IMAC purification without chaotropic agents): higher solubility than the native counterpart
precipitation during size exclusion chromatography ([3]; Superdex 75 Increase 10/300 GL, PBS1x, 16 °C): did not observe any precipitation
stability compared with E6_M2 ([3]; after dialysis and during size exclusion chromatography): more stable
precipitation / solubility after dialysis ([3]; dialysis against PBS1x pH 7.4, up to 48 h at 16 °C): always soluble

Molecule: SMGLPPGWDEYKT YRVMV GKTYYYNH LYRL KTSTWTDPRMSS [Clone H3, WW domain clone against human IgG, loops YRVMV / LYRL]
ELISA signal [1]: High (high binders (Abs>0.4))

Molecule: SMGLPPGWDEYKT VLYSG GKTYYYNH IMSL KTSTWTDPRMSS [Clone H6, WW domain clone against human IgG, loops VLYSG / IMSL]
ELISA signal [1]: High (high binders (Abs>0.4))

Molecule: SMGLPPGWDEYKT TLAGL GKTYYYNH YTPG KTSTWTDPRMSS [Clone G9, WW domain clone against human IgG, loops TLAGL / YTPG]
ELISA signal [1]: Moderate

Molecule: SMGLPPGWDEYKT FEIVM GKTYYYNH MHTD KTSTWTDPRMSS [Clone D10, WW domain clone against human IgG, loops FEIVM / MHTD]
ELISA signal [1]: Moderate

Molecule: SMGLLPGWDEYKT WVVDV GKTYYYNH FKVS KTSTWTDPRMSS [Clone H8, WW domain clone against human IgG, loops WVVDV / FKVS]
ELISA signal [1]: Moderate

Molecule: SMGLPPGWDEYKT AFSRA GKTYYYNH YLEE KTSTWTDPRMSS [Clone G5, WW domain clone against human IgG, loops AFSRA / YLEE]
ELISA signal [1]: High (high binders (Abs>0.4))

Molecule: SMGLPPGWDEYKT SLSRP GKTYYYNH EEPS KTSTWTDPRMSS [Clone G3, WW domain clone against human IgG, loops SLSRP / EEPS]
ELISA signal [1]: High (high binders (Abs>0.4))

ELISA binding signal relative to the negative control (E. coli Rosetta extract) [4]: 2 fold
ELISA binding signal relative to the scaffold framework WWp5 4 [4]: 2 fold
B1: E6_M2 (designed binder)
chain: CSGKLPPGWEERKTRRFKLGRTYYYNHHILSKTSQWEHPRGSS

ELISA binding signal relative to the negative control (E. coli Rosetta extract) [4]: 1.5 fold
B2: E6 in pET21a with C-terminal histidine tag (designed binder)
chain: SMGLPPGWDEYKTRRFKLGKTYYYNHHILSKTSTWTDPRMSS
